# Results: PMC12212008 (Drug Design, Development and Therapy, 2025)
# Legend:
# [1] = tested on: p53-Y220C mutant; conditions: covalent, targets Cys220; cited from earlier work
# [2] = target: T1, T-p53C-Y220C (Homo sapiens, UniProt P04637, M133L/N239Y/N268D/V203A/Y220C); assay: DSF thermal shift of T-p53C-Y220C; type: binding; conditions: for T-p53C-Y220C ∆Tm ± SD, concentration-dependent DSF: 1000 µM
# [3] = target: T1, T-p53C-Y220C; assay: Intact protein mass spectrometry of T-p53C-Y220C; type: binding; conditions: protein-to-compound ratio 1:100, 24 h, 20 °C
Compound,increase of Tm of the Y220C mutant [1],"T-p53C-Y220C ∆Tm ± SD ([2]; 250 µM, 24 h, 20 °C)","incubation time at which ∆Tm of T-p53C-Y220C plateaued / reached maximum ([2]; 1 mM, 20 °C, time-dependent DSF)","T-p53C-Y220C ∆Tm, time-dependent DSF ([2]; 1 mM, 10 min incubation, 20 °C)","T-p53C-Y220C ∆Tm ± SD, concentration-dependent DSF ([2]; 30 min)","T-p53C-Y220C ∆Tm ± SD ([2]; 1 mM, 30 min, 20 °C)","T-p53C-Y220C ∆Tm ± SD, concentration-dependent DSF ([2]; 24 h)",arylated T-p53C-Y220C protein species detected by intact MS [3]
C=C(C)C(=O)n1cc(C)c2c(-c3ccc4c(c3)CCN(C)C4)cncc21 [KG13],levels comparable to those of the WT protein,,,,,,,
"N#Cc1cnc(Cl)cn1 [SN006/7-3, 5-chloro-pyrazine-2-carbonitrile]",,2.87 °C,about 2 h,2.30 °C,2.65 °C,2.75 °C,3.55 °C,"three, four, or five times"
